# According to the supplement of paper PMC10307832:
# Assays:
# Assay in all cases: relative viability (nuclei count vs DMSO), 5 days (fraction); higher = more cells survive
# [1] = system: PC-3 [JPC-3]
# Summary of the method: (§1)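 Relative viability divides the nuclei count in treated wells by that in vehicle wells. Lung cancer cell lines were seeded in 1536-well plates, dosed by pin tool the next day, and fixed and stained after 5 days in one step with final 0.05% Triton X-100, 1% formaldehyde and 1 ug/ml Hoechst. Dosing was a single drug or a fixed anchor-drug dose plus five library-drug doses (not always all listed) in √10 steps, and values are medians of duplicate plates imaged at 4×.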
# [2] = system: NCI-H441
# Summary of the method: as §1
# [3] = system: COR-L23
# Summary of the method: as §1
# [4] = system: UMC-11
# Summary of the method: as §1
# [5] = system: NCI-H1755
# Summary of the method: as §1
# [6] = system: NCI-H1734
# Summary of the method: as §1
# [7] = system: EMC-BAC-2
# Summary of the method: as §1
# [8] = system: NCI-H1437
# Summary of the method: as §1
# [9] = system: NCI-H3122
# Summary of the method: as §1
# [10] = system: NCI-H596
# Summary of the method: as §1
# [11] = system: LK-2
# Summary of the method: as §1
# [12] = system: NCI-H1651
# Summary of the method: as §1
# [13] = system: NCI-H2347
# Summary of the method: as §1
# [14] = system: ABC-1
# Summary of the method: as §1
# [15] = system: HOP-62
# Summary of the method: as §1
# [16] = system: RERF-LC-KJ
# Summary of the method: as §1
# [17] = system: HARA
# Summary of the method: as §1
# [18] = system: NCI-H727
# Summary of the method: as §1
# [19] = system: SK-LU-1
# Summary of the method: as §1
# [20] = system: NCI-H1650
# Summary of the method: as §1
# [21] = system: HCC-366
# Summary of the method: as §1
compound,measurement,setting,value
Cc1csc(=NC2CCCCC2)n1/N=C/c1ccc(O)c(O)c1O [MIM1] + Nc1ncn([C@H]2C[C@H](O)[C@@H](CO)O2)c(=O)n1 [Decitabine] (partner 2 µM),relative viability,[1]; first compound 0.2 µM,0.816
same,relative viability,[1]; first compound 0.6325 µM,0.894
same,relative viability,[1]; first compound 2 µM,0.752
same,relative viability,[1]; first compound 6.325 µM,0.774
same,relative viability,[1]; first compound 20 µM,0.609
same,relative viability,[2]; first compound 0.2 µM,0.132
same,relative viability,[2]; first compound 0.6325 µM,0.252
same,relative viability,[2]; first compound 2 µM,0.241
same,relative viability,[2]; first compound 6.325 µM,0.173
same,relative viability,[2]; first compound 20 µM,0.178
same,relative viability,[3]; first compound 0.2 µM,0.405
same,relative viability,[3]; first compound 0.6325 µM,0.475
same,relative viability,[3]; first compound 2 µM,0.418
same,relative viability,[3]; first compound 6.325 µM,0.346
same,relative viability,[3]; first compound 20 µM,0.225
same,relative viability,[4]; first compound 0.2 µM,0.565
same,relative viability,[4]; first compound 0.6325 µM,0.585
same,relative viability,[4]; first compound 2 µM,0.647
same,relative viability,[4]; first compound 6.325 µM,0.607
same,relative viability,[4]; first compound 20 µM,0.42
same,relative viability,[5]; first compound 0.2 µM,0.724
same,relative viability,[5]; first compound 0.6325 µM,0.694
same,relative viability,[5]; first compound 2 µM,0.727
same,relative viability,[5]; first compound 6.325 µM,0.657
same,relative viability,[5]; first compound 20 µM,0.549
same,relative viability,[6]; first compound 0.2 µM,0.458
same,relative viability,[6]; first compound 0.6325 µM,0.492
same,relative viability,[6]; first compound 2 µM,0.452
same,relative viability,[6]; first compound 6.325 µM,0.323
same,relative viability,[6]; first compound 20 µM,0.178
same,relative viability,[7]; first compound 0.2 µM,0.97
same,relative viability,[7]; first compound 0.6325 µM,0.897
same,relative viability,[7]; first compound 2 µM,0.8
same,relative viability,[7]; first compound 6.325 µM,0.852
same,relative viability,[7]; first compound 20 µM,0.368
same,relative viability,[8]; first compound 0.2 µM,0.592
same,relative viability,[8]; first compound 0.6325 µM,0.547
same,relative viability,[8]; first compound 2 µM,0.586
same,relative viability,[8]; first compound 6.325 µM,0.368
same,relative viability,[8]; first compound 20 µM,0.303
same,relative viability,[9]; first compound 0.2 µM,0.449
same,relative viability,[9]; first compound 0.6325 µM,0.507
same,relative viability,[9]; first compound 2 µM,0.487
same,relative viability,[9]; first compound 6.325 µM,0.407
same,relative viability,[9]; first compound 20 µM,0.411
same,relative viability,[10]; first compound 0.2 µM,1.09
same,relative viability,[10]; first compound 0.6325 µM,1.1
same,relative viability,[10]; first compound 2 µM,0.831
same,relative viability,[10]; first compound 6.325 µM,0.84
same,relative viability,[10]; first compound 20 µM,0.841
same,relative viability,[11]; first compound 0.2 µM,0.343
same,relative viability,[11]; first compound 0.6325 µM,0.288
same,relative viability,[11]; first compound 2 µM,0.246
same,relative viability,[11]; first compound 6.325 µM,0.346
same,relative viability,[11]; first compound 20 µM,0.163
same,relative viability,[12]; first compound 0.2 µM,0.608
same,relative viability,[12]; first compound 0.6325 µM,0.524
same,relative viability,[12]; first compound 2 µM,0.56
same,relative viability,[12]; first compound 6.325 µM,0.509
same,relative viability,[12]; first compound 20 µM,0.306
same,relative viability,[13]; first compound 0.2 µM,0.592
same,relative viability,[13]; first compound 0.6325 µM,0.592
same,relative viability,[13]; first compound 2 µM,0.64
same,relative viability,[13]; first compound 6.325 µM,0.574
same,relative viability,[13]; first compound 20 µM,0.527
same,relative viability,[14]; first compound 0.2 µM,0.974
same,relative viability,[14]; first compound 0.6325 µM,1.28
same,relative viability,[14]; first compound 2 µM,1.14
same,relative viability,[14]; first compound 6.325 µM,0.944
same,relative viability,[14]; first compound 20 µM,0.427
same,relative viability,[15]; first compound 0.2 µM,0.206
same,relative viability,[15]; first compound 0.6325 µM,0.222
same,relative viability,[15]; first compound 2 µM,0.206
same,relative viability,[15]; first compound 6.325 µM,0.222
same,relative viability,[15]; first compound 20 µM,0.147
same,relative viability,[16]; first compound 0.2 µM,0.624
same,relative viability,[16]; first compound 0.6325 µM,0.652
same,relative viability,[16]; first compound 2 µM,0.377
same,relative viability,[16]; first compound 6.325 µM,0.301
same,relative viability,[16]; first compound 20 µM,0.22
same,relative viability,[17]; first compound 0.2 µM,0.529
same,relative viability,[17]; first compound 0.6325 µM,0.722
same,relative viability,[17]; first compound 2 µM,0.697
same,relative viability,[17]; first compound 6.325 µM,0.475
same,relative viability,[17]; first compound 20 µM,0.204
same,relative viability,[18]; first compound 0.2 µM,0.994
same,relative viability,[18]; first compound 0.6325 µM,0.818
same,relative viability,[18]; first compound 2 µM,0.841
same,relative viability,[18]; first compound 6.325 µM,0.879
same,relative viability,[18]; first compound 20 µM,0.574
same,relative viability,[19]; first compound 0.2 µM,0.686
same,relative viability,[19]; first compound 0.6325 µM,0.727
same,relative viability,[19]; first compound 2 µM,0.708
same,relative viability,[19]; first compound 6.325 µM,0.65
same,relative viability,[19]; first compound 20 µM,0.351
same,relative viability,[20]; first compound 0.2 µM,0.428
same,relative viability,[20]; first compound 0.6325 µM,0.448
same,relative viability,[20]; first compound 2 µM,0.348
same,relative viability,[20]; first compound 6.325 µM,0.199
same,relative viability,[20]; first compound 20 µM,0.135
same,relative viability,[21]; first compound 0.2 µM,0.295
same,relative viability,[21]; first compound 2 µM,0.354
same,relative viability,[21]; first compound 6.325 µM,0.176
same,relative viability,[21]; first compound 20 µM,0.0249
